Source: patent US10982100B2, “Slippery liquid-infused porous surfaces and biological applications thereof” (President and Fellows of Harvard College, priority 2011, dated 2021)

Legend:
[1] = Surface tension of polar and non-polar liquids; type: physicochemical
Text: Fluid-fluid interfacial tension can be measured by many well-established techniques, such as the Wilhelmy plate method, the Du Noüy ring method, and the pendant drop method (e.g., see Drelich et al., in Encyclopedia of Surface and Colloid Science, pp. 3152-3166, Marcel Dekker Inc, 2002, the contents of which is incorporated by reference herein in its entirety). Among all of the techniques, the pendant drop method is among the most popular and versatile technique, which can be easily extended to a two-liquid system. The pendant drop method measures the shape of a fluid-fluid interface and quantifies the shape distortion due to the competition between the fluid-fluid interfacial tension and gravity. In practice, a drop of denser fluid (e.g., Object A) is suspended by a syringe needle in medium X (i.e., air/water/the lubricating fluid). Owing to the influence of gravity, the denser liquid droplet will be deformed as the liquid volume increases. The shape profile of the liquid droplet is captured by an optical system and subsequently analyzed by a computer software when the liquid volume is increased to the maximum possible size (i.e., before the liquid drop is detached from the syringe needle). The interfacial tension of the fluid-fluid interface, γ, can then be deduced from the formula, γ=ΔρgD^2/H, where Δρ is the density difference between the two immiscible fluids, g is gravity, D is equatorial diameter of the liquid droplet, and H is drop shape dependent parameters which is a function of the shape profile of the droplet.

[2] = Stable lubricating film for solid-Liquid A-Liquid B combinations, theory versus experiment; type: physicochemical; set-up: key: “Y” indicates that Liquid B forms a stable lubricating film, and is not displaced by Object A; “N” indicates that Liquid B is displaced by Object A; details: label = Liquid A
Text: When the relationship holds, the lubricating liquid will stay in intimate contact with the porous solid without being displaced by Liquid A. Note that the equilibrium contact angles were estimated from the average values of the advancing and receding contact angles of Liquid A and the lubricating liquid on the flat solid surface. Satisfying the relationship can help promote the operation stability of the slippery surface where the liquid layer is substantially completely covered by the test liquid (i.e., two-phase environments that involve a single fluid interface between the test liquid and the liquid layer) and where the liquid layer contacts a droplet of the test fluid as well as air (i.e., three-phase environments that involve three fluid interfaces of (i) test liquid-liquid layer, (ii) test liquid-air, and (iii) liquid layer-air). […] Notice that γA and γB are equivalent to γAX and γBX defined in the text, and medium X is air specifically in this context. Variable γAB represents the interfacial tension for Object A-Liquid B interface. […] M., Ind. Eng. Chem. 56, 40-42, 1964; Israelachvili, J. N. Intermolecular and Surface Forces, Academic Press, 2011). The dispersion force contribution of water surface tension […]., Ind. Eng. Chem. 56, 40-42, 1964). S. Epoxy represents silanized epoxy resin substrate.

[3] = Contact angles of various liquids on flat solids; type: physicochemical; set-up: unit not given here
Experimental: The behavior of liquids on surfaces is described by an equilibrium contact angle. An equilibrium contact angle, θ, is the angle at which a liquid/vapor interface meets a solid surface, which is determined by the interactions across the three interfaces, e.g., solid/liquid/vapor. […] The upper limit is known as the apparent advancing contact angle (θA), whereas the lower limit is referred as the apparent receding contact angle (θR). The difference between these values is known as contact angle hysteresis (i.e., Δθ=θA−θR, where θA≥θ≥θR), which characterizes the liquid repellency of a surface. Conventionally, equilibrium contact angle can be roughly estimated by the average of the advancing and receding angles (i.e., θ=(θA+θR)/2), or by a static contact angle, θstatic (i.e., θ=θstatic).
In practice, contact angle measurement can be performed by a number of different well-established techniques, such as the sessile drop method and the Wilhelmy method. In particular, the sessile drop method is among the most popular technique for contact angle measurement. In this technique, a liquid droplet is deposited on a targeted solid surface, where the liquid profile is captured by an optical system of a goniometer and geometrically fitted to obtain the contact angle. The contact angle measured from a static liquid droplet deposited on the surface is known as the static contact angle, θstatic. Using the same system, advancing contact angle, θA, can be measured while the volume of the drop is increasing until the wetting line starts to advance. Receding contact angle, θR, can be measured by decreasing the volume of the drop and determining the contact angle just before the wetting line recedes. Alternatively, the advancing and the receding angles of the liquid drop can also be determined by gradually tilting the solid surface until the liquid drop starts to move.

P. aeruginosa = details: 1% and 0.1% concentrations; 3, 6, 9, and 30 hours; 550 nm
[4] = Solid Epoxy, Liquid B FC-70, R 1
[5] = Solid Epoxy, Liquid B FC-70, R 2
[6] = Solid S. Epoxy (silanized epoxy resin), Liquid B FC-70, R 2
[7] = Solid Silicon, Liquid B H2O, R 1
[8] = flat solid S. (silanized epoxy)

SMILES | Surface Tension [1] [mN/m] | Stable Film? Exp. [2, 5] | Stable Film? Theory [2, 5] | Stable Film? Exp. [2, 6] | Stable Film? Theory [2, 6] | Stable Film? Exp. [2, 7] | Stable Film? Theory [2, 7] | Measured contact angle θadv ([3]; flat solid Epoxy) | Measured contact angle θrec ([3]; flat solid Epoxy) | Measured contact angle θstatic ([3]; flat solid Epoxy) | Measured contact angle θadv [3, 8] | Measured contact angle θrec [3, 8] | Measured contact angle θstatic [3, 8] | Measured contact angle θadv ([3]; flat solid Silicon) | Measured contact angle θrec ([3]; flat solid Silicon) | Measured contact angle θstatic ([3]; flat solid Silicon) | also measured
CCCCCCCCCC [Decane] | 23.6 ± 0.1 | N | N | Y | Y | N | N | 15.0 ± 1.6 | 13.7 ± 0.9 | 14.2 ± 0.7 | 66.0 ± 4.1 | 38.5 ± 0.7 | 60.0 ± 2.8 | 7.9 ± 1.0 | ~0.0 | <5.0 | Stable Film? Exp. [2, 4]: N; Stable Film? Theory [2, 4]: N
CCCCCCCCCCCC [Dodecane] | 25.3 ± 0.1 |  |  |  |  |  |  |  |  |  |  |  |  |  |  |  | 
OCCO [Ethylene Glycol] | 48.1 ± 0.3 |  |  |  |  |  |  |  |  |  |  |  |  |  |  |  | 
OCC(O)CO [Glycerol] | 60.3 ± 1.1 |  |  |  |  |  |  |  |  |  |  |  |  |  |  |  | 
CCCCCCC [Heptane] | 19.9 ± 0.3 |  |  |  |  |  |  |  |  |  |  |  |  |  |  |  | 
CCCCCCCCCCCCCCCC [Hexadecane] | 27.2 ± 0.2 | N | N | Y | Y | N | N | 32.8 ± 1.4 | 25.7 ± 0.9 | 30.6 ± 0.4 | 76.3 ± 1.4 | 50.0 ± 3.9 | 70.5 ± 2.0 | 17.3 ± 1.6 | ~0.0 | 5.6 ± 1.1 | Stable Film? Exp. [2, 4]: N; Stable Film? Theory [2, 4]: Y/N
CCCCCC [Hexane] | 18.6 ± 0.5 | N | N | Y | Y | N | Y/N | ~0.0 | ~0.0 | ~0.0 | 52.5 ± 0.3 | 22.8 ± 1.7 | 40.1 ± 4.2 | <5.0 | ~0.0 | <5.0 | 
CCCCCCCCC [Nonane] | 22.6 ± 0.2 |  |  |  |  |  |  |  |  |  |  |  |  |  |  |  | 
CCCCCCCC [Octane] | 21.4 ± 0.2 | N | N | Y | Y | N | N | 9.7 ± 1.2 | 6.1 ± 0.2 | 7.9 ± 0.7 | 57.7 ± 2.5 | 23.8 ± 4.0 | 50.7 ± 3.0 | <5.0 | ~0.0 | <5.0 | 
CCCCC [Pentane] | 17.2 ± 0.5 | N | N | Y | Y | N | Y/N | ~0.0 | ~0.0 | ~0.0 | 36.4 ± 2.5 | 17.0 ± 1.8 | 30.8 ± 3.1 | <5.0 | ~0.0 | <5.0 | 
CCCCCCCCCCCCC [Tridecane] | 25.9 ± 0.1 | N | N | Y | Y |  |  | 28.3 ± 1.1 | 25.4 ± 0.7 | 26.9 ± 1.7 | 72.8 ± 0.2 | 48.1 ± 3.1 | 63.5 ± 2.8 |  |  |  | Stable Film? Exp. [2, 4]: N; Stable Film? Theory [2, 4]: Y/N
CCCCCCCCCCC [Undecane] | 24.6 ± 0.2 |  |  |  |  |  |  |  |  |  |  |  |  |  |  |  | 
O [Water] | 72.4 ± 0.1 | Y | Y/N | Y | Y |  |  | 100.3 ± 3.1 | 67.0 ± 4.5 | 92.6 ± 1.8 | 118.9 ± 1.7 | 90.8 ± 0.9 | 113.1 ± 2.8 | 14.4 ± 2.7 | ~0.0 | 13.1 ± 1.7 | Stable Film? Exp. [2, 4]: N; Stable Film? Theory [2, 4]: Y/N; Stable Film? Exp. ([2]; Solid PDMS, Liquid B PDMS, R 1): Y; Stable Film? Theory ([2]; Solid PDMS, Liquid B PDMS, R 1): Y; Stable Film? Exp. ([2]; Solid PP, Liquid B PDMS, R 1): Y; Stable Film? Theory ([2]; Solid PP, Liquid B PDMS, R 1): Y; Stable Film? Exp. ([2]; Solid PP, Liquid B PDMS, R 2): Y; Stable Film? Theory ([2]; Solid PP, Liquid B PDMS, R 2): Y; Stable Film? Exp. ([2]; Solid PTFE, Liquid B PDMS, R 2): Y; Stable Film? Theory ([2]; Solid PTFE, Liquid B PDMS, R 2): Y
O=CCCCC=O [glutaraldehyde, reference compound] |  |  |  |  |  |  |  |  |  |  |  |  |  |  |  |  | bacterial growth (optical densities) compared to control culture (P. aeruginosa): massive toxicity
